Measurements reported in publication PMC9517990 (Communications Biology, 2022).

Experiments:
[1] = biological target: neuraminidase of A/South Korea/90207/2020 WT virus (NA-H275, PA-I38) (Influenza A virus (A(H1N1)pdm09), UniProt A0A0X9QTS2); type: biochemical
[2] = system: A/South Korea/90207/2020 WT virus (NA-H275, PA-I38); test: microbe, parasite or virus in culture; type: cell-based, influenza A(H1N1)pdm09 virus; settings: Influenza A virus, MDCK, 24 h, read-out: EC50 nM ± SD (column headed IC50; footnote: EC50)

CCC(CC)[C@H](NC(C)=O)[C@@H]1[C@H](O)[C@@H](C(=O)O)C[C@H]1N=C(N)N [Peramivir, peramivir] was tested. Which IC50 [1] did it give?
Its IC50 is 0.16 nM.

For O=C1c2c(O)c(=O)ccn2N([C@@H]2c3ccccc3SCc3c2ccc(F)c3F)[C@@H]2COCCN12 [Baloxavir, Baloxavir acid], which EC50 [2] is on record?
Its EC50 is 1 ± 0.2 nM.
